Where two headings read alike, the source gives them in different places.
Target: T1, HCV polymerase (NS5B570n-Con1) (Hepatitis C virus genotype 1b, UniProt Q9WMX2)
T1 construct: contains a 21 amino acid deletion at the C-terminus relative to the full-length HCV polymerase; 6-histidine (N); made in house; host or cells: E. coli strain BL21(DE) pLysS (pET17b)
Experiment: biochemical
Parameters: species or system HCV Con1 strain

[1] = IC50 HCV NS5B RNA Polymerase Assay (values with asterisk), values with asterisk: cIRES RNA template, 3 nM NS5B570n-Con1
[2] = IC50 HCV NS5B RNA Polymerase Assay, values without asterisk, 20 nM NS5B570n-Con1 enzyme, 20 nM cIRES RNA template
[3] = read-out: IC50 HCV NS5B RNA Polymerase Assay, values without asterisk, 20 nM NS5B570n-Con1 enzyme, 20 nM cIRES RNA template
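Further: recombinant His-tagged enzyme from E. coli, radiolabeled nucleotide incorporation into acid-insoluble RNA read by scintillation after filtration, no-enzyme background subtracted, activity relative to positive control.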

Row | SMILES | IC50 [1] | IC50 [2] | other results
1 | COc1c(/C=C/c2ccc(NS(C)(=O)=O)cc2C(C)(C)O)cc(-c2ccc[nH]c2=O)cc1C(C)(C)C [I-204, N-[4-{(E)-2-[3-tert-Butyl-2-methoxy-5-(2-oxo-1,2-dihydro-pyridin-3-yl)-phenyl]-vinyl}-3-(1-hydroxy-1-methyl-ethyl)-phenyl]-methanesulfonamide] | 1 nM |  | 
2 | COc1c(/C=C/c2ccc(NS(C)(=O)=O)cc2)cc(-c2ccc[nH]c2=O)cc1C1(OC)CC1 [I-266, N-(4-{(E)-2-[3-(1-methoxycyclopropyl)-5-(2-oxo-1,2-dihydropyridin-3-yl)-2-methoxyphenyl]vinyl}-phenyl)methanesulfonamide] | 3 nM |  | 
3 | COc1c(NC(=O)c2ccc(NC3CC3)nc2)cc(-c2ccc[nH]c2=O)cc1C(C)(C)C [I-255, N-[3-tert-Butyl-2-methoxy-5-(2-oxo-1,2-dihydro-pyridin-3-yl)-phenyl]-6-cyclopropylamino-nicotinamide] |  | 70 nM | 
4 | COc1c(C(=O)NCc2cncn2C)cc(-c2ccc[nH]c2=O)cc1C(C)(C)C [I-39] |  | 1340 nM | 
5 | COc1c(C(=O)NC2CCC(NS(C)(=O)=O)CC2)cc(-c2ccc[nH]c2=O)cc1C(C)(C)C (centres unmarked) [I-260, 3-tert-Butyl-N-(4-methanesulfonylamino-cyclohexyl)-2-methoxy-5-(2-oxo-1,2-dihydro-pyridin-3-yl)-benzamide] |  | 35 nM | 
6 | COc1c(/C=C/c2ccc(NS(C)(=O)=O)cc2)cc(-c2cc(Cl)c[nH]c2=O)cc1C1(C)COC1 [I-291] | 2 nM |  | 
7 | COc1c(NC(=O)c2ccc(NC3CC3)cc2)cc(-c2ccc[nH]c2=O)cc1C(C)(C)C [I-256, N-[3-tert-Butyl-2-methoxy-5-(2-oxo-1,2-dihydro-pyridin-3-yl)-phenyl]4-cyclopropylamino-benzamide] |  | 19 nM | 
8 | CC(C)(C)c1cc(CCc2ccc(NS(C)(=O)=O)nc2)c(C#N)c(-c2ccc[nH]c2=O)c1 [I-212, N-(5-{2-[5-tert-Butyl-2-cyano-3-(2-oxo-1,2-dihydro-pyridin-3-yl)-phenyl]-ethyl}-pyridin-2-yl)-methanesulfonamide] |  | 9 nM | 
9 | COc1c(/C=C/c2ccc(NS(C)(=O)=O)cn2)cc(-c2cc(F)c[nH]c2=O)cc1C(C)(C)C [I-170, N-(6-{(E)-2-[3-tert-Butyl-5-(5-fluoro-2-oxo-1,2-dihydro-pyridin-3-yl)-2-methoxy-phenyl]-vinyl}-pyridin-3-yl)-methanesulfonamide] |  | 6 nM | 
10 | COc1c(/C=C/c2ccc(NS(C)(=O)=O)cc2CN(C)C)cc(-c2cc(F)c[nH]c2=O)cc1C(C)(C)C [I-221, N-(4-{(E)-2-[3-tert-Butyl-5-(5-fluoro-2-oxo-1,2-dihydro-pyridin-3-yl)-2-methoxy-phenyl]-vinyl}-3-dimethylaminomethyl-phenyl)-methanesulfonamide] | 11 nM |  | 
11 | COc1c(C(=O)NCc2ccccc2)cc(-c2ccc[nH]c2=O)cc1C(C)(C)C [I-37] |  | 1010 nM | 
12 | COc1c(/C=C/c2ccccc2C(=O)O)cc(-c2ccc[nH]c2=O)cc1C(C)(C)C [I-246, 2-{(E)-2-[3-tert-Butyl-2-methoxy-5-(2-oxo-1,2-dihydro-pyridin-3-yl)-phenyl]-vinyl}-benzoic acid] | 1 nM |  | 
13 | COc1c(/C=C/c2ccc(NS(=O)(=O)CCCN3CCCC3)cc2)cc(-c2ccc[nH]c2=O)cc1C(C)(C)C [I-234, 3-Pyrrolidin-1-yl-propane-1-sulfonic acid (4-{(E)-2-[3-tert-butyl-2-methoxy-5-(2-oxo-1,2-dihydro-pyridin-3-yl)-phenyl]-vinyl}-phenyl)-amide] | 4 nM |  | 
14 | COc1c(/C=C(/CO)c2ccc(NS(C)(=O)=O)cc2)cc(-c2ccc[nH]c2=O)cc1C(C)(C)C [I-145] |  | 53 nM | 
15 | COc1c(NC(=O)c2ccc(NS(C)(=O)=O)cc2F)cc(-c2ccc[nH]c2=O)cc1C(C)(C)C [I-281] |  | 7 nM | 
16 | COc1c(/C=C/c2ccc(NS(C)(=O)=O)cc2)cc(-c2ccc(CC#N)[nH]c2=O)cc1C(C)(C)C [I-224, N-(4-{(E)-2-[3-tert-Butyl-5-(6-cyanomethyl-2-oxo-1,2-dihydro-pyridin-3-yl)-2-methoxy-phenyl]-vinyl}-phenyl)-methanesulfonamide] | 4 nM |  | 
17 | COc1c(/C=C/c2ccc(NS(C)(=O)=O)cn2)cc(-c2ccc[nH]c2=O)cc1C1(C(F)F)CC1 [I-258, N-(6-{(E)-2-[3-(1-Difluoromethyl-cyclopropyl)-2-methoxy-5-(2-oxo-1,2-dihydro-pyridin-3-yl)-phenyl]-vinyl}-pyridin-3-yl)-methanesulfonamide] | 1 nM |  | 
18 | COc1c(/C=C/c2ccc(NS(C)(=O)=O)cc2)cc(-c2ccc(C(C)O)[nH]c2=O)cc1C(C)(C)C (centres unmarked) [I-223, N-[4-((E)-2-{3-tert-Butyl-5-[6-(1-hydroxy-ethyl)-2-oxo-1,2-dihydro-pyridin-3-yl]-2-methoxy-phenyl}-vinyl)-phenyl]-methanesulfonamide] | 1 nM |  | 
19 | CS(=O)(=O)Nc1ccc(/C=C/c2cc(-c3ccc[nH]c3=O)cc(C3(C(F)F)CC3)c2)cc1 [I-275, N-(4-{(E)-2-[3-(1-Difluoromethyl-cyclopropyl)-5-(2-oxo-1,2-dihydro-pyridin-3-yl)-phenyl]-vinyl}-phenyl)-methanesulfonamide] | 1 nM |  | 
20 | COc1c(C(=O)NC2CCC(N(C)C)CC2)cc(-c2ccc[nH]c2=O)cc1C(C)(C)C (centres unmarked) [I-92] |  | 1690 nM | 
21 | COc1c(/C=C/c2ccc(NC(C)=O)cn2)cc(-c2cc(F)c[nH]c2=O)cc1C(C)(C)C [I-169, N-(6-{(E)-2-[3-tert-Butyl-5-(5-fluoro-2-oxo-1,2-dihydro-pyridin-3-yl)-2-methoxy-phenyl]-vinyl}-pyridin-3-yl)-acetamide] |  | 29 nM | 
22 | COc1c(/C=C/c2ccc(NS(C)(=O)=O)cc2F)cc(-c2cc(F)c[nH]c2=O)cc1C(C)(C)C [I-236, N-(4-{(E)-2-[3-tert-Butyl-5-(5-fluoro-2-oxo-1,2-dihydro-pyridin-3-yl)-2-methoxy-phenyl]-vinyl}-3-fluoro-phenyl)-methanesulfonamide] | 1 nM |  | 
23 | COc1c(CC(CO)c2ccc(NS(C)(=O)=O)cc2)cc(-c2ccc[nH]c2=O)cc1C(C)(C)C (centres unmarked) [I-176] |  |  | IC50 [3]: 6 nM
24 | COc1c(/C=C/c2ccc(NS(C)(=O)=O)cc2CN2CCOCC2)cc(-c2cc(F)c[nH]c2=O)cc1C(C)(C)C [I-222, N-(4-{(E)-2-[3-tert-Butyl-5-(5-fluoro-2-oxo-1,2-dihydro-pyridin-3-yl)-2-methoxy-phenyl]-vinyl}-3-morpholin-4-ylmethyl-phenyl)-methanesulfonamide] | 1 nM |  | 
25 | COc1c(/C=C/c2ccc(NS(C)(=O)=O)cn2)cc(-c2cc(Cl)c[nH]c2=O)cc1C(C)(C)C [I-261] | 3 nM |  | 
26 | COCCNc1ccc(C(=O)Nc2cc(-c3ccc[nH]c3=O)cc(C(C)(C)C)c2OC)cn1 [I-254, N-[3-tert-Butyl-2-methoxy-5-(2-oxo-1,2-dihydro-pyridin-3-yl)-phenyl]-6-(2-methoxy-ethylamino)-nicotinamide] |  | 141 nM | 
27 | COc1c(/C=C/c2ccc(NS(=O)(=O)C(F)(F)F)cc2)cc(-c2cc(F)c[nH]c2=O)cc1C(C)(C)C [I-154] |  |  | IC50 [3]: 10 nM
28 | Cc1cc(-c2ccc(CO)[nH]c2=O)cc(C(C)(C)C)c1 [I-12] |  | 892 nM | 
29 | COc1c(NC(=O)c2ccc(NS(C)(=O)=O)cc2OCCN(C)C)cc(-c2ccc[nH]c2=O)cc1C(C)(C)C [I-285] |  | 149 nM | 
